Holding throughout (assay type): in vivo, mouse
For test [1], the system named is WT mice retina. As to the kind of experiment: RNA-seq of PN24 retina, WT mice. The following applies: GSK PN9 till PN24 vs saline; FDR<0.05, fold change >2 or <0.5. How it is done:
RNA was extracted from PN24 retina of WT and rd10 animals treated with saline or GSK from PN9 till PN24. RNA integrity number (RIN) was measured using BioAnalyzer (Agilent Technologies) RNA 6000 Nano Kit to confirm RIN above 7 for each sample. The cDNA libraries were prepared using the Illumina® Stranded mRNA Prep, Ligation kit (Illumina) as per the manufacturer's instructions. Briefly, polyA RNA was purified from 200 ng of total RNA using oligo (dT) beads. The extracted mRNA fraction was subjected to fragmentation, reverse transcription, end repair, 3′— end adenylation, and adaptor ligation, followed by PCR amplification and SPRI bead purification (Beckman Coulter). […] The final product was assessed for its size distribution and concentration using BioAnalyzer High Sensitivity DNA Kit (Agilent Technologies). […] De-multiplexed and adapter-trimmed sequencing reads were generated using Illumina bcl2fastq (released version 2.20.0) allowing no mismatches in the index read. […] Next, alignment of the filtered reads to the mouse reference genome (mouse Ensembl release 67 (GRCm37/NCBIM37/mm9)) was done using HISAT2 (version 2.1.0) applying --no-mixed and --no-discordant options. Read counts were calculated using HTSeq by supplementing Ensembl gene annotation (release 67: “Mus_musculus.Ensembl.NCBIM37.67.gtf”). […]

Test [2] concerns rd10 mice retina. Description: RNA-seq of PN24 retina, rd10 mice. Here is the method:
RNA was extracted from PN24 retina of WT and rd10 animals treated with saline or GSK from PN9 till PN24. RNA integrity number (RIN) was measured using BioAnalyzer (Agilent Technologies) RNA 6000 Nano Kit to confirm RIN above 7 for each sample. The cDNA libraries were prepared using the Illumina® Stranded mRNA Prep, Ligation kit (Illumina) as per the manufacturer's instructions. Briefly, polyA RNA was purified from 200 ng of total RNA using oligo (dT) beads. The extracted mRNA fraction was subjected to fragmentation, reverse transcription, end repair, 3′— end adenylation, and adaptor ligation, followed by PCR amplification and SPRI bead purification (Beckman Coulter). The unique dual index sequences (IDT® for Illumina® RNA UD Indexes Set A, Ligation, Illumina) were incorporated in the adaptors for multiplexed high-throughput sequencing. The final product was assessed for its size distribution and concentration using BioAnalyzer High Sensitivity DNA Kit (Agilent Technologies). The libraries were pooled and diluted to 3 nM using 10 mM Tris-HCl, pH 8.5, and then denatured using the Illumina protocol. The denatured libraries were loaded onto an S1 flow cell on an Illumina NovaSeq 6000 (Illumina) and run for 2×53 cycles according to the manufacturer's instructions. De-multiplexed and adapter-trimmed sequencing reads were generated using Illumina bcl2fastq (released version 2.20.0) allowing no mismatches in the index read. BBDuk was used to trim/filter low-quality sequences using “qtrim=lr trimq=10 maq=10” option. Next, alignment of the filtered reads to the mouse reference genome (mouse Ensembl release 67 (GRCm37/NCBIM37/mm9)) was done using HISAT2 (version 2.1.0) applying --no-mixed and --no-discordant options. Read counts were calculated using HTSeq by supplementing Ensembl gene annotation (release 67: “Mus_musculus.Ensembl.NCBIM37.67.gtf”). The edgeR R package was used to fit the read counts to the negative binomial model along with the generalized linear model (GLM) and differentially expressed genes were determined by the likelihood ratio test method implemented in the edgeR. […] The ggplot2 R package was used for generating heatmaps. Raw counts and differential expression analysis generated during this study are available at GEO Submission GSE169527.
The Database for Annotation, Visualization, and Integrated Discovery (DAVID) was used for GO functional analysis.

In test [3] the test system is WT mice retina. Description: RT-PCR retinal gene expression, WT mice. Here is the method: Whole retinas were isolated from animals by removing the sclera and most of the retinal pigmented epithelium (RPE) layer under PBS. The right eye retinas from each animal were taken for RNA extraction, cDNA preparation and RT-PCR. Immediately after isolation, tissue was flash frozen in liquid nitrogen and stored at −80° C. Left eye retinas from each animal were subjected to fixation, cryopreservation, sectioning, and immunofluorescence staining. RNA extraction and purification followed the manufacturer's protocol from RNeasy Mini Kit and RNA shredder (Qiagen). […] Primers purchased from Integrated DNA Technologies (IDT). For quantitative real-time PCR we used 2× iQ-SYBR Green PCR supermix from Bio-Rad. Samples in triplicate were run on an iQ5 Multicolor Real Time PCR Detection System (Bio-Rad). The relative expression level for each gene was calculated by the 2-ΔΔCt method and normalized to GAPDH.

[4] abbreviates: GSK PN9 till PN24 vs saline, FDR<0.05, fold change >2 or <0.5.

Molecules are shown by their SMILES.

On to `O=C(O)c1ccc(CN2CCC(CN[C@@H]3C[C@H]3c3ccccc3)CC2)cc1` [GSK, GSK2879552], for which, in test [1], the “number of genes downregulated” value was found to be 13 genes and the “number of genes upregulated” value is given as 77 genes. In test [2] (setting [4]), the “number of genes downregulated” value is recorded as 369 genes and the “number of genes upregulated” value came to 719 genes. Moreover, the “genes simultaneously upregulated in rd10 and WT mice retina” value in test [2] (GSK, p<0.05, fold change >1.75 or <0.8) is on record as “approximately 150 genes”. Also, the “expression of genes specific for rod photoreceptors” value in test [2] (rd10+GSK retina) is “returned to normal expression levels”. Further, the “IPA canonical pathways, upregulated” value in test [2] (rd10+GSK vs rd10) is given as “major upregulated pathway is the phototransduction pathway”. Further, the “IPA canonical pathways, down regulated” value in test [2] (rd10+GSK vs rd10, next 4 most important pathways) is on record as “down regulated pathways were all related to neuroinflammation”. In test [2] (rd10+GSK, Atp6v0d2, Mcoln3, Cd5l, Ctsd, C1qa, Fcrls, Hexb, Gpr34, Junb, Pclaf, Birc5), the “expression of resident microglia markers” value was “went back to normal levels of expression”. In addition, the “expression of markers of infiltrating immune cells” value in test [2] (rd10+GSK, H2-Aa, cd74, H2-Ab1, H2-Eb1, Cx3cr1 and others) is “returned to normal levels of expression”. In addition, in test [2] (rd10 under GSK inhibition), the “expression of amacrine cell markers Clrn1 and Efemp1” value is on record as “down-regulated”; the “expression of cell death genes Capn9, Casp1, 12, AifI” value is listed as “downregulated”. Moreover, in test [2] (rd10 under GSK inhibition, did not reach threshold conditions), the “expression of Gfap” value is “decreased”. The “expression of rod photoreceptor genes” value in test [3] (WT mice treated PN9 till PN24) is reported as “no changes”. In addition, the “expression of transcription factors of retina development and maturation” value in test [3] (WT retinas, treated PN9 till PN24) is reported as “slightly increased expression”.
